Data: ChEMBL document CHEMBL1201862, “PubChem BioAssay data set” (2004)
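Exposure lasted 48 hours, with cells grown in 96-well plates and compounds tested at five concentrations. Abbreviation: GI50, concentration required for 50% inhibition of growth.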 The source made the active and inactive calls. Cut-off read from the data, not from the text of the source: active = GI50 up to about 1.1 µM and inactive = higher.

Columns and labels:
Experiment in all cases: NCI-60 cell line screen, 48 h
[1] = tested on: MDA-MB-435
[2] = tested on: T47D
[3] = tested on: DU-145
[4] = tested on: MDA-MB-231
[5] = tested on: MDA-N
[6] = tested on: Hs-578T
[7] = tested on: BT-549
[8] = tested on: RXF 631

SMILES | GI50 [1] | GI50 [2] | GI50 [3] | GI50 [4] | GI50 [5] | GI50 [6] | GI50 [7] | GI50 [8]
CO/N=C1/c2sccc2[C@H](NC(=O)C(F)(F)F)[C@@H]1O | > 100 µM (inactive) | > 100 µM (inactive) | > 100 µM (inactive) | > 100 µM (inactive) | > 100 µM (inactive) | > 100 µM (inactive) | > 100 µM (inactive) | 
O=C(N/N=C\c1cccc2ccccc12)Nc1ccccc1 | > 100 µM (inactive) | > 100 µM (inactive) | > 100 µM (inactive) |  | > 100 µM (inactive) | > 100 µM (inactive) | > 100 µM (inactive) | 
CCCCCCCCCCCCCCCC(=O)OC1C(O)C(CO)OC(OC)C1NC(=O)N(CCCl)N=O (configuration not stated) |  |  |  |  |  |  |  | 16.8 µM (inactive)
CC(=O)Nc1ccc2[nH]c(C(=O)N3CC(CCl)c4c3cc(N)c3ccccc43)cc2c1 (configuration not stated) | 0.0147 µM (active) | < 0.0164 µM (active) | < 0.01 µM (active) | < 0.0237 µM (active) | 0.0177 µM (active) | < 0.01 µM (active) | < 0.0312 µM (active) | 
COc1ccc(N2CN(C)CSC2=S)cc1 | 43.3 µM (inactive) | 54 µM (inactive) | > 100 µM (inactive) | > 100 µM (inactive) |  | > 100 µM (inactive) | 75.5 µM (inactive) | 
